The values that follow come from patent publication US20230026360A1, “DETECTION OF MOLECULAR INTERACTIONS” (Orionis Biosciences, Inc., priority 2019, published 2023).

Common to all, as to type: cell-based
The target in experiment [1] is T1, CRBN-ZFP91 interaction (Homo sapiens, UniProt Q96SW2). As to the kind of experiment: MAPPIT inverse assay, CRBN gp130 fusion + ZFP91 receptor fusion. Details: expressed in transfected cells; host or cells: HEK293T. Conditions: inverse configuration; HEK293T cells; EPO; dose-response. The text has this: (§1) The traditional MAPPIT assay has been used to monitor protein-protein interactions. A bait protein (protein A) is expressed as a fusion protein in which it is genetically fused to an engineered intracellular receptor domain of the leptin receptor, which is itself fused to the extracellular domain of the erythropoietin (Epo) receptor. Binding of Epo ligand to the Epo receptor component results in activation of receptor-associated intracellular JAK2. However, activated JAK2 cannot activate the leptin receptor to trigger STAT3 binding and its phosphorylation because its tyrosine residues, normally phosphorylated by activated JAK2, have been mutated. […] Activation of STAT3 can be monitored by introduction of a STAT3-responsive reporter gene, including a luciferase-encoding gene or a gene encoding a fluorescent marker such as GFP or some other type of Fluorescent Protein (EGFP etc.). […]
(§2) Full size proteins were fused for each of the target/prey proteins tested, except in the case of IKZF1 where isoform 7 was used. […] Luciferase activity was measured 24 hours after test compound treatment using the Luciferase Assay System kit (PROMEGA, Madison, Wis.) with an Ensight plate reader (PERKIN ELMER LIFE SCIENCES, Waltham, Mass.). […]
Target sequence in this assay (Q96SW2 whole entry, the tested form may be a part): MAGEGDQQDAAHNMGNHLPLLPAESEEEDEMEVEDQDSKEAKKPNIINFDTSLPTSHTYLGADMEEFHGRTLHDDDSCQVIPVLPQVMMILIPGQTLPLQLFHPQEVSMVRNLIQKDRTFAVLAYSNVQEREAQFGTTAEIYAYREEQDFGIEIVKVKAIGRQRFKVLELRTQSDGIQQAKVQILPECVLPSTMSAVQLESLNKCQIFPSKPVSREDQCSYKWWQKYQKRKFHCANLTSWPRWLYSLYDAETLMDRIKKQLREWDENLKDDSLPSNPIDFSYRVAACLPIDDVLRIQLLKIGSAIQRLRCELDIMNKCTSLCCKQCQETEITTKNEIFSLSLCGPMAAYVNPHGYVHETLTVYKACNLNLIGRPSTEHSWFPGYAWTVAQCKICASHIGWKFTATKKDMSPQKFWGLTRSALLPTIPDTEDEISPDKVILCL
Target sequence in this assay (Q96JP5 whole entry partner, the tested form may be a part): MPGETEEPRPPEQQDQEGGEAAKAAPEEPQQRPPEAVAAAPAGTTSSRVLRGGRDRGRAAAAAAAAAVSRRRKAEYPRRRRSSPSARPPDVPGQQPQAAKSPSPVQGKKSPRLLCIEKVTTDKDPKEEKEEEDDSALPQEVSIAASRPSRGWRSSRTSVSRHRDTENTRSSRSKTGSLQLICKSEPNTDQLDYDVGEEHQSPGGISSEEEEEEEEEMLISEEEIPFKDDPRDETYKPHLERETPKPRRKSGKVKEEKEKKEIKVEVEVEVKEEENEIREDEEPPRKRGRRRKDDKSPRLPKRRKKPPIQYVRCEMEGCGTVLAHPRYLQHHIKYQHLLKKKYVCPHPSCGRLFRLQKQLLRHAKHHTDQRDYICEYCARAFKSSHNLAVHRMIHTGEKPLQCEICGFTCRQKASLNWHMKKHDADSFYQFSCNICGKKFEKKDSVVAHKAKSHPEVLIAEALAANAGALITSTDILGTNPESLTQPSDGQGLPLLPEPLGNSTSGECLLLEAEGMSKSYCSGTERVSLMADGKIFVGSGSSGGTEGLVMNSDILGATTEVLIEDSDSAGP

The target in experiment [2] is T2, CRBN-IKZF3 interaction (Homo sapiens, UniProt Q96SW2). As to the kind of experiment: MAPPIT inverse assay, CRBN gp130 fusion + IKZF3 receptor fusion. Details: expressed in transfected cells; host or cells: HEK293T. To be noted: inverse configuration; HEK293T cells; EPO; dose-response.
Description: as §1, §2
Target sequence in this assay (Q96SW2 whole entry, the tested form may be a part): as the sequence (Q96SW2 whole entry, the tested form may be a part) above
Target sequence in this assay (Q9UKT9 whole entry partner, the tested form may be a part): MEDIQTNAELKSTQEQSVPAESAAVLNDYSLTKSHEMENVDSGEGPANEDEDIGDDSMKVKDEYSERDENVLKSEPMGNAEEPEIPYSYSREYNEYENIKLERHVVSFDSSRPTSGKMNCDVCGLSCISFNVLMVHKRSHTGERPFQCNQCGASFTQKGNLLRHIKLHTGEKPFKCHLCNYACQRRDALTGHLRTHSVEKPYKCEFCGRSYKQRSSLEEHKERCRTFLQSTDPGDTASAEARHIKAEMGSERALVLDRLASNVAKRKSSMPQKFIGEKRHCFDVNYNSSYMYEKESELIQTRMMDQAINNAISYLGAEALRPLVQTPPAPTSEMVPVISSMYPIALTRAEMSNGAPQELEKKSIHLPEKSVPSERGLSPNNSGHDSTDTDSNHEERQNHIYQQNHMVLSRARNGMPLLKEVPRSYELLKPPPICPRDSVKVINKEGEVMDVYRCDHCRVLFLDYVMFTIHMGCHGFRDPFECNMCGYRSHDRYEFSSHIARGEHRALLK

The target of experiment [3] is T1, CRBN-ZFP91 interaction. As to the kind of experiment: MAPPIT forward assay, CRBN receptor fusion + ZFP91 gp130 fusion. Details: MAPPIT chimeric receptor (EPO receptor extracellular domain + signaling-deficient leptin receptor part); expressed in transfected cells; host or cells: HEK293T. To be noted: forward configuration; HEK293T cells; EPO; dose-response.
Description: as §1, §2
Target sequence in this assay (Q96SW2 whole entry, the tested form may be a part): as the sequence (Q96SW2 whole entry, the tested form may be a part) above

In experiment [4] the test system is CRBN and human ORF(eome) cDNA library targets. As to the kind of experiment: Inverse MAPPIT cell microarray ORF cDNA library screen with CRBN bait. Conditions: HEK293T. As to the method: In order to identify ligand-induced CRBN substrates, or neosubstrates, a MAPPIT cell microarray screen was performed using the procedure described in Lievens, et al. “Proteome-scale binary interactomics in human cells.” Molecular & Cellular Proteomics 15.12 (2016): 3624-3639. In brief, HEK293T cells were transfected with a CRBN bait expression plasmid encoding a gp130-CRBN fusion construct. These transfected cells were then added to microarray screening plates containing a MAPPIT chimeric membrane receptor fusion expression plasmid collection covering over 15,000 ORFs. Each spot in the microarray contained a different chimeric receptor-ORF fusion expression plasmid, as well as a STAT3-responsive fluorescence protein-encoding reporter plasmid. Gp130-CRBN bait transfected cells landing and attaching on these spots therefore become transfected as well with the receptor-ORF prey plasmid and the reporter plasmid, resulting in a different CRBN-ORF combination being tested in the cells on every different microarray spot. Twenty-four hours after transfection cells were differentially stimulated with erythropoietin with and without the CRBN ligand CC-220 (1 μM final concentration), and reporter signal (GFP-like fluorescence reporter) was read out 48 hours later.

The target in experiment [5] is T2, CRBN-IKZF3 interaction. As to the kind of experiment: MAPPIT forward assay, CRBN receptor fusion + IKZF3 gp130 fusion. Also on record: MAPPIT chimeric receptor (EPO receptor extracellular domain + signaling-deficient leptin receptor part); expressed in transfected cells; host or cells: HEK293T. To be noted: forward configuration; HEK293T cells; EPO; dose-response.
Description: as §1, §2
Target sequence in this assay (Q96SW2 whole entry, the tested form may be a part): as above

The next experiment concerns the target T3, CRBN-CSNK1A1 interaction (Homo sapiens, UniProt Q96SW2).
T3 construct: expressed in transfected cells; host or cells: HEK293T
Description: MAPPIT inverse assay with alternative CSNK1A1 receptor fusion (leptin receptor extracellular domain, pCLG-CSNK1A1). Conditions: inverse configuration, activated with leptin, 0, 0.1, 1, 10 μM, HEK293T. How it is done: Cells were treated with leptin without or with the indicated dose of test compound at 24 hours after transfection. Luciferase activity was measured 24 hours after test compound treatment using the Luciferase Assay System kit (PROMEGA, Madison, Wis.) with an Ensight plate reader (PERKIN ELMER LIFE SCIENCES, Waltham, Mass.). […] Error bars represent standard deviations.

T3 sequence (Q96SW2 whole entry): as the sequence (Q96SW2 whole entry, the tested form may be a part) above
T3 sequence (P48729 whole entry partner): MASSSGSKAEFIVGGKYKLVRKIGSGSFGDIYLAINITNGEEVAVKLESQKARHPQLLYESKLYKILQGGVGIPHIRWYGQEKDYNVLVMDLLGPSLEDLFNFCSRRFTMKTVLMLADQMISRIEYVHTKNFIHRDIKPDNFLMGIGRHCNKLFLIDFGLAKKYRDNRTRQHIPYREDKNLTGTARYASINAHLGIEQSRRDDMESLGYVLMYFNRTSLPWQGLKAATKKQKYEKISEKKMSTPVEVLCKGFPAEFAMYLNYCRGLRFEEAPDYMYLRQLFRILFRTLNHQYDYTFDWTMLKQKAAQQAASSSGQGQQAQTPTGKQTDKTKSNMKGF

As to `O=C1CC[C@H](N2Cc3c(OCc4ccc(CN5CCOCC5)cc4)cccc3C2=O)C(=O)N1` [CC-220], the “compound-induced binding of ZFP91 to CRBN (luciferase reporter signal)” value at CRBN-ZFP91 interaction [1] is “an interaction signal response could be detected”; at CRBN-ZFP91 interaction [3], “only in the inverse assay setup an interaction signal response could be detected”. In addition, the “compound-induced binding of IKZF3 to CRBN (luciferase reporter signal)” value was “an interaction signal response could be detected” on CRBN-IKZF3 interaction [2] and “only in the inverse assay setup an interaction signal response could be detected” at CRBN-IKZF3 interaction [5]. Moreover, the “induction of fluorescence reporter signal in ORF cDNA cell microarray screen” value in experiment [4] (CC-220 1 μM final concentration, over 15,000 ORFs, erythropoietin) is given as “a significant induction of signal is observed for a number of ORF cDNAs”. The “dose-response confirmation of binding of three ORF hits to CRBN” value in experiment [4] (inverse MAPPIT luciferase assay, EPO) is on record as “dose-dependent binding to CRBN”. Moreover, at CRBN-CSNK1A1 interaction, the “compound-induced CRBN-CSNK1A1 interaction (CSNK1A1 neosubstrate recruitment)” value is “CSNK1A1 neosubstrate recruitment can be detected”.
